These results are taken from patent US6686390B2, “Compounds having antiinflamatory activity: process for their preparation and pharmaceutical compositions containing them” (Dr. Reddy's Laboratories Limited, priority 2000, dated 2004).

Molecules are shown by their SMILES.

Data set [1] has as its target T1, cox-1 enzyme (Ovis aries, UniProt P05979).
T1 construct: Microsomal fraction of ram seminal vesicles used as a source of cox-1 enzyme; from tissue; host or cells: ram seminal vesicles (microsomal fraction)
T1 sequence (P05979 25-600): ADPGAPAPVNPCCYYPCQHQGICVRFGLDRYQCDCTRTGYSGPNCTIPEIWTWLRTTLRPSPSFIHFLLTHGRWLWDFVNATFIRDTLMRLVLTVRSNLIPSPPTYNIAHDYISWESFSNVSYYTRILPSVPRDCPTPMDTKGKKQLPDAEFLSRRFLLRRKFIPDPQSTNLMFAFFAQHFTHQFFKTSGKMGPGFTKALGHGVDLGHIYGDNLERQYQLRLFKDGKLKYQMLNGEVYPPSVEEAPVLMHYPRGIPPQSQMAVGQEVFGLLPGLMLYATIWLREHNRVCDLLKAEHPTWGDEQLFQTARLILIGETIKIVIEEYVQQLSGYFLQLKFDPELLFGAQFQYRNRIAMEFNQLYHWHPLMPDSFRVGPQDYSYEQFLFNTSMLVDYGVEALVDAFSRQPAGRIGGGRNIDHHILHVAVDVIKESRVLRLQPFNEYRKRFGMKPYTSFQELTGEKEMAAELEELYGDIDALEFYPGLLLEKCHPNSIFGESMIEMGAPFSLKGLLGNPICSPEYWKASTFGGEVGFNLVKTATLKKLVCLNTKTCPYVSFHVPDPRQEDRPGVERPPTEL
Nature of the data set: Spectrophotometric assay of cox-1 (TMPD oxidation). The data set is classed as biochemical. As to conditions: microsomal fraction of ram seminal vesicles, read-out: Percent inhibition COX-1; for inhibition at 100 µM: Conc. 100 μM. The procedure: (§1) 1. Spectrophotometric assay of cox-1 and cox-2:
(§2) Microsomal fraction of ram seminal vesicles used as a source of cox-1 enzyme (Hemler et al., 1976) and microsomes from sf-9 cells infected with baculo virus containing human cox-2 c-DNA used as a source of cox-2 enzyme (Wanda et al., 1994). Enzyme activity was measured using a chromogenic assay based on oxidation of N,N,N′,N′-tetramethyl-p-phenylenediamine (TMPD) during the reduction of PGG2 to PGH2 as per described by Copeland et al., 1994 with following modifications. The assay mixture (1000 μl) contains […] pH 8.0, 3 μM EDTA, 15 μM hematin, 150 units enzyme and 8% DMSO. The mixture was pre-incubated at 25° C. for 15 minutes before initiation of enzyme reaction in presence of compound/vehicle. The reaction was initiated by the addition of 100 μM arachidonic acid and 120 μM TMPD. The enzyme activity is measured by estimation of the initial velocity of TMPD oxidation over the first 25 seconds of the reaction followed by increase in absorbency at […]. The IC50 values were calculated using non-linear regression analysis of percent inhibitions.

Data set [2] has as its target T2, COX-1 (Homo sapiens, UniProt P23219).
T2 construct: Fresh heparinised human whole blood; endogenous in cells; host or cells: human whole blood
Nature of the data set: Human whole blood assay, COX-1 inhibition. The class given is cell-based. How it is done:
(§3) 2) Human Whole Blood Assay:
Fresh heparinised human whole blood was incubated with lipopolysaccharide (LPS) from E. coli at 100 μg/ml and with 2.5 μl vehicle (D)MSO) or test compound for 24 hours at 37° C. PGE2 levels in the plasma were measured using EIA kit (Cayman chemicals, USA) after deproteinization.

For data set [3], the target named is T3, COX-2 (Homo sapiens, UniProt P35354).
T3 sequence (P35354 18-604): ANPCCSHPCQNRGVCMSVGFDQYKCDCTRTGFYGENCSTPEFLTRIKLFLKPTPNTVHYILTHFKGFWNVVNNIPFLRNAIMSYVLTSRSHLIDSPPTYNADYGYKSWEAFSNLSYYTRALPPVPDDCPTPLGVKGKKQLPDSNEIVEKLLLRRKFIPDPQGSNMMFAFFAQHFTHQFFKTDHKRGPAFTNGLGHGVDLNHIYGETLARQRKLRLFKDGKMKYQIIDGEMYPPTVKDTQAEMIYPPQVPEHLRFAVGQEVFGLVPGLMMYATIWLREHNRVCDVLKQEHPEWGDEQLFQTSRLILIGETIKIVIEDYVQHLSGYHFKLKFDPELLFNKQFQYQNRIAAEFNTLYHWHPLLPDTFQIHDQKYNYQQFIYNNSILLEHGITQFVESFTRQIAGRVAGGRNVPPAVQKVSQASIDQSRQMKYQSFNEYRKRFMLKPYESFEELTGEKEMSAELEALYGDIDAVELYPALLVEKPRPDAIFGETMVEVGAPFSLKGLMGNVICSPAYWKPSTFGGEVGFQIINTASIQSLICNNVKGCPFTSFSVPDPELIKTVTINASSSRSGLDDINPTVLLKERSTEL
Description: Human whole blood assay, COX-2 inhibition. The class given is cell-based. To be noted: read-out: IC50 COX-II. More on the design: endogenous in cells; host or cells: human whole blood. The procedure:
as §3
An aliquot of fresh blood was mixed either with DMSO or test compounds and was allowed to clot for 1 hour at 37° C. TXB2 levels in the serum were measured using EIA kit (Cayman chemicals, USA) after deproteinization.

In data set [4] the target is T3, COX-2. Nature of the data set: Spectrophotometric assay of cox-2 (TMPD oxidation). The data set is classed as biochemical. Details: made in house; host or cells: sf-9 insect cells, baculovirus. As to conditions: microsomes from sf-9 cells with human cox-2, read-out: Percent inhibition COX-2; for inhibition at 100 µM: Conc. 100 μM. How it is done: as §1, §2

T2 sequence (P23219 24-599): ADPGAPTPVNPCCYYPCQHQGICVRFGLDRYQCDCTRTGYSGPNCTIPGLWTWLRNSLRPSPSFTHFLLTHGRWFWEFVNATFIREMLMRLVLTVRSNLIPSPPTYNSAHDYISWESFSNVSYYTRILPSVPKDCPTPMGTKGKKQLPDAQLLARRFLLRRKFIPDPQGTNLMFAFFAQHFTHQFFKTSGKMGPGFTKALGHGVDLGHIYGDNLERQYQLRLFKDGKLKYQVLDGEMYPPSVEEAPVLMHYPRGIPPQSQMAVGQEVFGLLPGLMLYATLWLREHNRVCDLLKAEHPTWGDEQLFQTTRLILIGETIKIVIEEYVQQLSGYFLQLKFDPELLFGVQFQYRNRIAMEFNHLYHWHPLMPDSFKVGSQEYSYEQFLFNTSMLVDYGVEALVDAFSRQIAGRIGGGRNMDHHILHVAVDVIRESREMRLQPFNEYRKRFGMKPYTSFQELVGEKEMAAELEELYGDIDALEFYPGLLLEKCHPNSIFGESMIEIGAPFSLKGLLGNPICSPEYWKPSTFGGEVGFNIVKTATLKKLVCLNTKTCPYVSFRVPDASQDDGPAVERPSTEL

In general, inhibition refers to the relative decrease from the control value, in per cent. The term melting point denotes the temperature, or range, at which the solid turns liquid. What is called IC50 is the concentration that inhibits the measured activity by half. Regarding `Cc1cc(C2=C(c3ccccc3)C(=O)OC2)ccc1S(C)(=O)=O` [Example 6, 4-(3-Methyl-4-methylsulfonylphenyl)-3-phenyl-2,5-dihydro-2-furanone], the melting point fell in the range of 167 to 170 °C. Also, the inhibition at 100 µM in data set [1] came to 0%. The same compound returned an IC50 in data set [2] of more than 500 µM. Moreover, the 50% inhibitory concentration (IC50) in data set [3] was 5.7 µM. Moreover, in data set [4], the inhibition at 100 µM was 82%.

In turn, `CS(=O)(=O)c1ccc(C2=C(c3cccc(F)c3)C(=O)OC2)c(F)c1` [Example 52, 4-(2-Fluoro-4-methylsulfonylphenyl)-3-(3-fluorophenyl)-2,5-dihydro-2-furanone] showed a melting point of 125 to 128 °C. Besides, the inhibition at 100 µM in data set [1] was 12%. Inhibition in data set [2] was half-maximal at 1220 ± 20 µM (IC50). The IC50 in data set [3] is 0.578 ± 0.011 µM. For the same compound, in data set [4], the inhibition at 100 µM is 100%.

For the compound `CSc1ccc(C2=C(c3ccc(S(C)(=O)=O)c(F)c3)COC2=O)cc1C` [Example 53, 4-(3-Fluoro-4-methylsulfonylphenyl)-3-(3-methyl-4-methylsulfanylphenyl)-2,5-dihydro-2-furanone], the melting point fell in the range of 177 to 180 °C. Also, the inhibition at 100 µM in data set [1] came to 44%. Also, in data set [2], the IC50 was 247 ± 24 µM. Moreover, the IC50 in data set [3] stood at 0.368 µM. Further, the inhibition at 100 µM in data set [4] is 100%.

The compound `COc1ccc(C2=C(c3ccc(S(C)(=O)=O)c(C)c3)COC2=O)cc1C` [Example 55, 3-(3-Methyl-4-methoxyphenyl)-4-(3-methyl-4-methylsulfonylphenyl)-2,5-dihydro-2-furanone] gave a melting point of 147 to 150 °C. For the same compound, the inhibition at 100 µM in data set [1] was determined as 30%. Also, the IC50 in data set [2] is more than 100 µM. Also, the IC50 in data set [3] amounted to 1 µM. The inhibition at 100 µM in data set [4] was determined as 100%.

As for `COc1ccc(C2=C(c3ccc(S(C)(=O)=O)cc3F)COC2=O)cc1C` [Example 58, 4-(2-Fluoro-4-methylsulfonylphenyl)-3-(3-methyl-4-methoxyphenyl)-2,5-dihydro-2-furanone], the melting point was in the range of 144 to 146 °C. Further, the inhibition at 100 µM in data set [1] was 19%. In data set [2], this compound gave an IC50 of 357 ± 7.45 µM. For the same compound, the 50% inhibitory concentration (IC50) in data set [3] is 0.524 ± 0.062 µM. Also, the inhibition at 100 µM in data set [4] came to 93%.

The compound `CCC1OC(=O)C(c2ccc(F)cc2)=C1c1ccc(S(C)(=O)=O)c(F)c1` (stereo not drawn) [Example 68, 5-Ethyl-4-(3-fluoro-4-methylsulfonylphenyl)-3-(4-fluorophenyl)-2,5-dihydro-2-furanone] displayed a melting point of 176 to 178 °C. The inhibition at 100 µM in data set [1] was found to be 0%. This compound also registered an IC50 in data set [2] of 297 µM. Further, in data set [3], the 50% inhibitory concentration (IC50) came out at 1.25 µM. Further, the inhibition at 100 µM in data set [4] was found to be 100%.

Turning to `CS(=O)(=O)c1ccc(C2=C(c3ccc(F)c(F)c3)C(=O)OC2)c(F)c1` [Example 69, 3-(3,4-Difluorophenyl)-4-(2-fluoro-4-methylsulfonylphenyl)-2,5-dihydro-2-furanone], the melting point lay in the range of 146 to 148 °C. For the same compound, in data set [1], the inhibition at 100 µM worked out at 10%. This compound also had an IC50 in data set [2] of more than 500 µM. Also, the IC50 in data set [3] was found to be 0.318 ± 0.013 µM. Besides, the inhibition at 100 µM in data set [4] stood at 93%.

As for `CS(=O)(=O)c1ccc(C2=C(c3cc(F)cc(F)c3)C(=O)OC2)c(F)c1` [Example 70, 3-(3,5-Difluorophenyl)-4-(2-fluoro-4-methylsulfonylphenyl)-2,5-dihydro-2-furanone], the melting point lay in the range of 125 to 127 °C. Further, the inhibition at 100 µM in data set [1] was 49%. In data set [2], this compound returned an IC50 of 115 µM. Further, the IC50 in data set [3] came to 0.913 µM. The inhibition at 100 µM in data set [4] worked out at 92%.

In turn, `CC1OC(=O)C(c2ccc(F)cc2)=C1c1ccc(S(C)(=O)=O)c(F)c1` (stereo not drawn) [Example 89, 4-(3-Fluoro-4-methylsulfonylphenyl)-3-(4-fluorophenyl)-5-methyl-2,5-dihydro-2-furanone] registered a melting point of 190 to 192 °C. Moreover, the inhibition at 10 µM in data set [1] (Conc. 10 μM) came to 0%. In data set [2], this compound came in with a 50% inhibitory concentration (IC50) of more than 1000 µM. Moreover, the IC50 in data set [3] is 6.13 µM. In addition, in data set [4] (Conc. 10 μM), the inhibition at 10 µM was found to be 95%.
